According to patent publication US12534477B2, “Compound having KHK inhibitory effect” (HANGZHOU ZHONGMEIHUADONG PHARMACEUTICAL CO., LTD., priority 2019, dated 2026):
Where two headings read alike, the source gives them in different places.

Tests used:
CYP3A4 = CYP3A4 (Homo sapiens (Human), UniProt P08684); assay: Inhibitory activity on human liver microsomal cytochrome P450 isozymes; type: in vitro ADME; details: human liver microsomes
Method: (§1) The inhibitory effect of test compounds on the activity of human hepatic microsomal cytochrome P450 isozymes (CYP1A2, CYP2C9, CYP2C19, CYP2D6 and CYP3A4) was determined.
(§2) First, the test compound (10 mM) was diluted in gradient to prepare working solutions (100×final concentration) with working solution concentrations: 5, 1.5, 0.5, 0.15, 0.05, 0.015, 0.005 mM, respectively, and at the same time, working solutions of each positive inhibitor of P450 isozymes (CYP1A2, CYP2C9, CYP2C19, CYP2D6 and CYP3A4) and its specific substrate mixture were prepared. Human liver microsomes frozen in a −80° C. refrigerator were thawed on ice, and diluted with PB (phosphate buffer) after all the human liver microsomes were dissolved, to prepare a working solution at a certain concentration (0.253 mg/mL). 20 μl substrate mixture was added to the reaction plate (20 μL PB was added to the Blank wells) while 158 μL human liver microsome working solution was added to the reaction plate which was placed on ice for later use. At this time, 2 μL of each concentration of the test compound (N=1) and the specific inhibitor (N=2) were added to the corresponding wells, and the corresponding organic solvents were added to the groups without inhibitors (the test compound or the positive inhibitor) as control samples (1:1 DMSO:MeOH for the test compound control sample, and 1:9 DMSO:MeOH for the positive control sample). After pre-incubation in 37° C. water bath for 10 min, 20 μL coenzyme factor (NADPH) solution was added to the reaction plate, and incubated in 37° C. water bath for 10 min. 400 μL cold acetonitrile solution (200 ng/mL Tolbutamide and Labetalol as the internal standard) was added to stop the reaction. The reaction plate was placed on a shaker and shaken for 10 min. The mixture was centrifuged at 4,000 rpm for 20 min, and 200 μl the supernatant was added to 100 μL water for sample dilution. Finally, the plate was sealed, shaken, mixed well and detected by LC/MS/MS.

CYP2D6 = CYP2D6 (Homo sapiens (Human), UniProt P10635); assay: as above; type: in vitro ADME; details: human liver microsomes
Method: as §1, §2

CYP2C19 = CYP2C19 (Homo sapiens (Human), UniProt P33261); assay: as above; type: in vitro ADME; details: human liver microsomes
Method: as §1, §2

CYP2C9 = CYP2C9 (Homo sapiens (Human), UniProt P11712); assay: as above; type: in vitro ADME; details: human liver microsomes
Method: as §1, §2

[1] = biological target: Recombinant Human Ketohexokinase (KHK) (Homo sapiens (Human), UniProt P50053); assay: Ketohexokinase assay (KHK assay), ADP-Glo; type: biochemical
Method: • 1. EnVision multilabel reader, Perkin Elmer; • 2. OptiPlate 384-well microplate, Perkin Elmer, Cat. No. 6007290; • 3. Recombinant Human Ketohexokinase (KHK), R&D Cat. No.: 8177-HK-020, Lot No.: DDFK0117092; • 4. Fructose (D(−)-Fructose), SCR Cat. No.: 36003034; and • 5. ADP-Glo kinase assay kit, Promega_Cat. No.: V9101.
1. preparation of Dilution Buffer containing 50 mM hydroxyethylpiperazine […] (Hepes), 140 mM KCl, 3.5 mM MgCl2, and 0.01% bovine serum albumin (BSA), pH 7.4.
2. A working solution of ketohexokinase at 2.5 times concentration was prepared with Dilution Buffer, with 50 nM ketohexokinase and 12.5 mM fructose.
3. A working solution of adenosine triphosphate (ATP) at 2.5 times concentration was prepared with Dilution Buffer, with a concentration of 250 μM.
4. Each compound was diluted starting at a concentration of 500 μM, 3-fold diluted for 9 concentration points. The final concentration of the compound in the reaction system started from 10 μM and the final concentration of dimethyl sulfoxide (DMSO) was 2%.
5. A 96-well plate was prepared as a reaction plate, and was incubated at room temperature for 5 min after adding 6 μL ketohexokinase working solution at 2.5 times concentration to each well and further adding 3 μL compound working solution to each well.
6. The first well of each row was a positive control for a compound, i.e. the same volume of the buffer was added to replace the compound and ketohexokinase. The last well was a negative control for the compound, i.e. the same volume of Dilution Buffer was added instead of the compound.
7. 6 μL ATP working solution was added to each well in a 96-well reaction plate to initiate the kinase reaction. The kinase reaction was incubated in a constant temperature heater at 28° C. for 1 h.
1. A384 plate was prepared as a detection plate, and firstly 5 μL ADP-Glo reagent was added.
2. 5 μL kinase reaction mixture from the reaction plate was added to each well and incubated in a constant temperature heater at 28° C. for 30 min.
3. 10 μL kinase detection reagent was added to each well and incubated in a constant temperature heater at 28° C. for 30 min.
4. The detection plate was placed in an EnVision multilabel reader to read the chemiluminescent signal.

[2] = Liver-blood ratio, tissue distribution in rats; type: in vivo, SD rats; details: PO 1 mpk
Method: Tissue distribution of compounds in SD rats was tested.
In the experiment, candidate compounds were formulated as clear solutions and administered to rats in a single oral dose (PO, 1 mpk). The vehicle for oral administration was a certain proportion of methylcellulose and Tween 80 in water. Whole blood was collected at a certain time and plasma was prepared, and tissues were collected at the corresponding time and prepared into tissue homogenates. Drug concentration was analyzed by LC-MS/MS, and pharmacokinetic parameters were calculated by Phoenix WinNonlin software.

[3] = Pharmacokinetic evaluation in SD rats; type: in vivo; details: rat, plasma; for clearance: 1 mg/kg, read-out: Clearance rate; for clearance / bioavailability: IV 1 mpk; for bioavailability / AUC: PO 3 mpk; for bioavailability: read-out: Bioavailability F; for AUC: read-out: Integral concentration AUC for PO; for half-life: IV 1 mpk and PO 3 mpk study, read-out: Half-life T1/2 (converted)
Method: In vivo pharmacokinetics of compounds in SD rats were tested.
Pharmacokinetic profiles in rodents following intravenous and oral administration of the compounds were tested by standard protocols. In the experiment, candidate compounds were formulated as clear solutions or homogeneous suspensions, and were administered to rats by single intravenous injection (IV, 1 mpk) and oral administration (PO, 3 mpk). The vehicle for intravenous injection was a certain proportion of PEG400 in water, and the vehicle for oral administration was a certain proportion of methylcellulose and Tween 80 in water. Whole blood was collected, and plasma was prepared. Drug concentration was analyzed by LC-MS/MS, and pharmacokinetic parameters were calculated by Phoenix WinNonlin software.

CYP1A2 = CYP1A2 (Homo sapiens (Human), UniProt P05177); type: in vitro ADME; details: microsomes
Method: as §1, §2

[4] = tested on: fructose metabolism in mice; assay: Acute fructose feeding experiment in mice; type: in vivo; details: compound 30 mpk, oral fructose 1 g/kg
Method: The effect of test compounds on the fructose content in mice with high fructose intake was investigated.
All animals were acclimated for one week in an animal house, fed with normal chow and fasted for 16 hours before being given fructose.
1) The experiment began at −0.5 hr. A control group was given a certain volume of vehicle (a certain proportion of methylcellulose and Tween 80 in water), and an experimental group was given a certain dose of a solution of the compound (the administered volume was consistent with the vehicle).
2) 0.5 hour later and before administration of a fructose solution, a blood sample was collected at 0 hr, followed by oral administration of 1 g/kg of an aqueous fructose solution.
3) After the administration of fructose, blood samples were collected from saphenous vein of mice at 0.25, 0.5, 1, 2, 3 and 8 hr, and fructose concentration was analyzed by LC-MS/MS.

[5] = SD, rat, liver, 1 mg/kg, 1.5 h, read-out: Liver tissue concentration
[6] = SD, rat, liver, 1 mg/kg, 2.0 h, read-out: Liver tissue concentration
[7] = SD, rat, liver, 1 mg/kg, 6.0 h, read-out: Liver tissue concentration
[8] = SD, rat, liver/plasma, 1 mg/kg, 1.5 h, read-out: Liver-blood ratio
[9] = SD, rat, liver/plasma, 1 mg/kg, 2.0 h, read-out: Liver-blood ratio
[10] = SD, rat, liver/plasma, 1 mg/kg, 6.0 h, read-out: Liver-blood ratio
[11] = SD, rat, plasma, 1 mg/kg, 1.5 h, read-out: Plasma concentration
[12] = SD, rat, plasma, 1 mg/kg, 2.0 h, read-out: Plasma concentration
[13] = SD, rat, plasma, 1 mg/kg, 6.0 h, read-out: Plasma concentration
[14] = 1.5 h, read-out: Brain tissue concentration
[15] = 1.5 h, read-out: Liver tissue concentration
[16] = 2.0 h, read-out: Brain tissue concentration
[17] = 2.0 h, read-out: Liver tissue concentration
[18] = 6.0 h, read-out: Liver tissue concentration

CYP2C19, sequence (P33261 whole entry): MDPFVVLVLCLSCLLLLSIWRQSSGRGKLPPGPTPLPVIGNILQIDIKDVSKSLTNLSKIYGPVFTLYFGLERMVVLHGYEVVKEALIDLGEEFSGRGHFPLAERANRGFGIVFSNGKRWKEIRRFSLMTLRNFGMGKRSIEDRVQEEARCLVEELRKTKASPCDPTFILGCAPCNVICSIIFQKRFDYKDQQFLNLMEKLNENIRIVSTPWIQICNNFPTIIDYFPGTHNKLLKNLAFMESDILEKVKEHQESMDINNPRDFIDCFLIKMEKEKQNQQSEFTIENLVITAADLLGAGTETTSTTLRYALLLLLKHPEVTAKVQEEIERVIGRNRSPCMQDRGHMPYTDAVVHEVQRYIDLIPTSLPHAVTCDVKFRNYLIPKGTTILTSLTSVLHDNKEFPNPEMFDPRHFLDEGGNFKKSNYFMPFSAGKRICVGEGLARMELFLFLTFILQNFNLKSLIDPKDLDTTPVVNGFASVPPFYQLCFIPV
CYP3A4, sequence (P08684 whole entry): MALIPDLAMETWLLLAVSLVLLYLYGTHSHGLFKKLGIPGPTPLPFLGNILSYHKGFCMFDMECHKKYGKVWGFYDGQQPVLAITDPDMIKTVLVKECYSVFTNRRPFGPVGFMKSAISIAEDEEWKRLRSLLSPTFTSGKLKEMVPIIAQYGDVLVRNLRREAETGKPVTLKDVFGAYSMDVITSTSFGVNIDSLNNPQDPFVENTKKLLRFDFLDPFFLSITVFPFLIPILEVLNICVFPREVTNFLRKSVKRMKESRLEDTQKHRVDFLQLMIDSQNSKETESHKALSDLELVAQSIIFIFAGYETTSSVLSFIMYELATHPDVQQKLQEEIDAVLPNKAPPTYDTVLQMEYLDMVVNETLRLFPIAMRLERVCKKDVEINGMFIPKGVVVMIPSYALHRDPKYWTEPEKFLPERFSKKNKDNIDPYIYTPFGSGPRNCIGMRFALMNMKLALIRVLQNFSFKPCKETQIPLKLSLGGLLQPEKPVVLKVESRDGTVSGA
CYP2C9, sequence (P11712 whole entry): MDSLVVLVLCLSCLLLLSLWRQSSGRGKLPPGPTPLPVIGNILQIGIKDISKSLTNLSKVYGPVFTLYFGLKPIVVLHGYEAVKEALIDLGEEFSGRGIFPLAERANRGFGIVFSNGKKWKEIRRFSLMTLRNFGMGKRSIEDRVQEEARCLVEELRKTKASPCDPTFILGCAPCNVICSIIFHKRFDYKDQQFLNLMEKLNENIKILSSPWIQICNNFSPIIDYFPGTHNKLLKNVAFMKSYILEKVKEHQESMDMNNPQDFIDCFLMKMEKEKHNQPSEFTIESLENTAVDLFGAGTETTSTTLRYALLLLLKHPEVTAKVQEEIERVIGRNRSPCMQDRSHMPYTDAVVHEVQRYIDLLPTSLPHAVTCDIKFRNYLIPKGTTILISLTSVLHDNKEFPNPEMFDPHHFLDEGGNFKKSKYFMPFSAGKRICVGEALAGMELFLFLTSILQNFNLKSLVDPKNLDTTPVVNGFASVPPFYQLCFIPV
CYP1A2, sequence (P05177 whole entry): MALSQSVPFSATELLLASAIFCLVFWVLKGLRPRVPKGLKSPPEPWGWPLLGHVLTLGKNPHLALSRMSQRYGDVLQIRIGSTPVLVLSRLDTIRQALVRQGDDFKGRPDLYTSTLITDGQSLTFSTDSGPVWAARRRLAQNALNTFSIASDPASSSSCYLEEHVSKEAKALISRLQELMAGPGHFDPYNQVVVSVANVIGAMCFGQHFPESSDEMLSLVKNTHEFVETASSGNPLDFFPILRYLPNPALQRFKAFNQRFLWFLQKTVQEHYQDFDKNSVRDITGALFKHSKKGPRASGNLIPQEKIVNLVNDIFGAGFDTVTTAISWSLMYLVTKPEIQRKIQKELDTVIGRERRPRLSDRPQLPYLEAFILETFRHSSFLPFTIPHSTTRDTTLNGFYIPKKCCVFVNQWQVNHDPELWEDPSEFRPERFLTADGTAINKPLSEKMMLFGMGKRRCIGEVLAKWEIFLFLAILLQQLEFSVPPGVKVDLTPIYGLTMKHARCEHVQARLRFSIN
CYP2D6, sequence (P10635 whole entry): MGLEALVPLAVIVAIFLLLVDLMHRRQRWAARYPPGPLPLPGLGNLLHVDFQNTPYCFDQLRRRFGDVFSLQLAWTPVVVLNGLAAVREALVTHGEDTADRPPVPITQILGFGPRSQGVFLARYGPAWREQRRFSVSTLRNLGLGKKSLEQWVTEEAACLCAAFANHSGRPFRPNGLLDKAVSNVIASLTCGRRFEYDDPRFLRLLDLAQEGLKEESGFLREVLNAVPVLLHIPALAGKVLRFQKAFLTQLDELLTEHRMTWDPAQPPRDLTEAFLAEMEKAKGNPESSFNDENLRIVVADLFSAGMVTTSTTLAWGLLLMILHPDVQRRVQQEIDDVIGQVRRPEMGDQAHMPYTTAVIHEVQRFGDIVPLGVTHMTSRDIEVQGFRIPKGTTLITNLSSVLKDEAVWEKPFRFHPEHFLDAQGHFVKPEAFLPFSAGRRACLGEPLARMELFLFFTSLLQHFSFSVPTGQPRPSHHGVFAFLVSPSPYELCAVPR
Recombinant Human Ketohexokinase (KHK), sequence (P50053 whole entry): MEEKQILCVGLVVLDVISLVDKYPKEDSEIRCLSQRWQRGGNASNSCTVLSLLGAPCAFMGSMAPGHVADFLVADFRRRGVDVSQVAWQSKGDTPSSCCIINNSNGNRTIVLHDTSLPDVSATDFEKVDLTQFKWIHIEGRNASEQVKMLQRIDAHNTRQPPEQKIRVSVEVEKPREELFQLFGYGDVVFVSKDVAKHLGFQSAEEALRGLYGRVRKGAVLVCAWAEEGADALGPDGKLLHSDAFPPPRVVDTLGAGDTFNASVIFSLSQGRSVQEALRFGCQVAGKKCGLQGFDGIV

IC50 (CYP3A4) | IC50 (CYP2D6) | IC50 (CYP2C19) | IC50 (CYP2C9) | IC50 [1] | concentration at 1.5 h [2, 5] | concentration at 2 h [2, 6] | concentration at 6 h [2, 7] | Kp at 1.5 h [2, 8] | Kp at 2 h [2, 9] | Kp at 6 h [2, 10] | concentration at 1.5 h [2, 11] | concentration at 2 h [2, 12] | concentration at 6 h [2, 13] | clearance [3] | bioavailability ([3]; 3 mg/kg) | AUC ([3]; 3 mg/kg) | half-life [3] | IC50 (CYP1A2; human, 10 min) | Compound | AUC of integral fructose concentration for dosed group [4] | further results
> 50 µM | > 50 µM | > 50 µM | > 50 µM | 0.18 µM | 2440 nM | 4270 nM | 1790 nM | 0.491 | 0.469 | 0.549 | 4880 nM | 9090 nM | 3320 nM | 1.04 mL/min/kg | 158% | 163 µM·h | 3.12 h | > 50 µM | C[C@H]1CCN1c1nc(N2C[C@@H]3[C@@H](CC(=O)O)[C@@H]3C2)c2ncsc2n1 [WX001] | – | concentration at 1.5 h ([2]; SD, rat, brain, 1 mg/kg, 1.5 h, read-out: Brain tissue concentration): 72.8 nM; concentration at 2 h ([2]; SD, rat, brain, 1 mg/kg, 2.0 h, read-out: Brain tissue concentration): 162 nM; concentration at 6 h ([2]; SD, rat, brain, 1 mg/kg, 6.0 h, read-out: Brain tissue concentration): 91.5 nM; Kp at 1.5 h ([2]; SD, rat, brain/plasma, 1 mg/kg, 1.5 h, read-out: Brain-blood ratio): 0.015; Kp at 2 h ([2]; SD, rat, brain/plasma, 1 mg/kg, 2.0 h, read-out: Brain-blood ratio): 0.017; Kp at 6 h ([2]; SD, rat, brain/plasma, 1 mg/kg, 6.0 h, read-out: Brain-blood ratio): 0.02
> 50 µM | > 50 µM | > 50 µM | > 50 µM | 0.025 µM | 2420 nM | 2860 nM | 2180 nM | 1.2 | 0.92 | 1.25 | 2010 nM | 3100 nM | 1780 nM | 1.05 mL/min/kg | 44% | 39.5 µM·h | 2.63 h | > 50 µM | C[C@H]1CCN1c1nc(Nc2ccc(CC(=O)O)cc2)c2ccsc2n1 [WX006] | – | –
> 50 µM | > 50 µM | > 50 µM | > 50 µM | – | – | – | – | – | – | – | – | – | – | 8.13 mL/min/kg | – | 20.5 µM·h | 2.27 h | – | C[C@H]1CCN1c1nc(N2CC3(C[C@@H]3C(=O)O)C2)c2c(n1)C(F)(F)CC2 [WX042] | 3400 nM·h | AUC of integral fructose concentration of dosed group/AUC of Integral fructose concentration of control group [4]: 12.9; Brain-blood ratio ([2]; 1.5 h): 0.0375; Liver-blood ratio ([2]; 1.5 h): 9.53; Plasma concentration ([2]; 1.5 h): 3314 nM; concentration at 6 h [2, 14]: 76.2 nM; concentration at 1.5 h [2, 15]: 19900 nM; Brain-blood ratio ([2]; 2.0 h): 0.0211; Liver-blood ratio ([2]; 2.0 h): 6.78; Plasma concentration ([2]; 2.0 h): 3045 nM; concentration at 6 h [2, 16]: 62.2 nM; concentration at 1.5 h [2, 17]: 20600 nM; Liver-blood ratio ([2]; 6.0 h): 26.2; Plasma concentration ([2]; 6.0 h): 259 nM; concentration at 1.5 h [2, 18]: 6710 nM; bioavailability [3]: 176%; IC50 (CYP1A2): > 50 µM
> 50 µM | > 50 µM | > 50 µM | > 50 µM | – | – | – | – | – | – | – | – | – | – | 5.37 mL/min/kg | – | 12 µM·h | 5.83 h | – | C[C@H]1CCN1c1nc(N2CC3(C[C@H]3C(=O)O)C2)c2c(n1)C(F)(F)CC2 [WX043] | 3504 nM·h | AUC of integral fructose concentration of dosed group/AUC of Integral fructose concentration of control group [4]: 13.3; Brain-blood ratio ([2]; 1.5 h): 0.016; Liver-blood ratio ([2]; 1.5 h): 20.0; Plasma concentration ([2]; 1.5 h): 2025 nM; concentration at 6 h [2, 14]: 30.6 nM; concentration at 1.5 h [2, 15]: 38250 nM; Brain-blood ratio ([2]; 2.0 h): 0.014; Liver-blood ratio ([2]; 2.0 h): 30.0; Plasma concentration ([2]; 2.0 h): 916 nM; concentration at 6 h [2, 16]: 13.1 nM; concentration at 1.5 h [2, 17]: 27800 nM; Liver-blood ratio ([2]; 6.0 h): 81.5; Plasma concentration ([2]; 6.0 h): 246 nM; concentration at 1.5 h [2, 18]: 19800 nM; bioavailability [3]: 70%; IC50 (CYP1A2): > 50 µM
